According to patent US20240366539A1, “METHODS FOR TREATING AUTISM SPECTRUM DISORDERS” (INSTITUT NATIONAL DE LA SANTÉ ET DE LA RECHERCHE MÉDICALE, priority 2021, published 2024):

System: Oprm1^−/− mice
Assay: Direct social interaction test
Assay type: in vivo, mouse
Experimental: Mice were treated with vehicle (NaCl 0.9%; ip, 10 or 20 ml/kg), NaBr (Sigma-Aldrich, Saint-Quentin Fallavier, France) administered either chronically (once a day, 10, 30, 70, 125, 250 and 500 mg/kg; i.p. or per os, in a volume of 20 ml/kg—except for combination with VU0155041: […]) or acutely (250 mg/kg, 20 ml/kg), KBr (Sigma-Aldrich, Saint-Quentin Fallavier, France; 145 mg/kg; i.p., 20 ml/kg), bumetanide (R&D systems, Minneapolis, USA, 0.5 and 2 mg/kg; i.p., 20 ml/kg) or VU0155041 (Cayman Chemicals, Ann Arbor, USA, once a day, i.p., 1 mg/kg, 10 ml/kg). […] When treatment was given chronically, behavioral testing started 8 days after beginning of daily administration. Treatment was maintained for 8 to 18 consecutive days (see timelines in FIGS. 1 and 4), allowing thorough behavioral phenotyping. On testing days, or when treatment was given acutely, drugs (or vehicle) were administered 30 min before behavioral assays.
When assessing effects of chronic administration, experiments were performed successively (timelines in FIGS. 1 and 4) (51, 60). Testing order was chosen to minimize the incidence of anxiety on later assays. Direct social interaction and novelty suppressed feeding were performed in 4 equal square arenas (open fields, 50×50 cm) separated by 35 cm-high opaque grey Plexiglas walls over a white Plexiglas platform (View Point, Lyon, France). Stimulus mice used for the three-chamber test were 8-14-week-old grouped-housed male or female wild-type mice, socially naive to the experimental animals.
Direct social interaction test. On testing day, a pair of unfamiliar mice (not cage mates, age-, sex- and treatment-matched) was introduced in each arena for 10 min (15 lx). Each arena received a black plastic floor (transparent to infrared). […] The mean duration of nose and paw contacts was calculated from previous data (61-63).

[1] = Oprm1−/− mice, chronic once daily, NaBr 10-500 mg/kg (effect from 125 mg/kg) or bumetanide 0.5 and 2 mg/kg, D9
[2] = Oprm1−/− mice, one week after cessation of chronic treatment (NaBr over 70 mg/kg, highest doses; bumetanide depending on the dose)

SMILES: [Br-].[Na+] [NaBr, sodium bromide]
- social interaction in wild-type controls (Oprm1+/+ mice, chronic once daily, NaBr 10-500 mg/kg or bumetanide 0.5 and 2 mg/kg): had no detectable effect in Oprm1^+/+ mice
- social interaction behavioral parameters (Oprm1−/− mice, NaBr 70 mg/kg, VU0155041 1 mg/kg, alone or combined, once daily, chronic): had no detectable effects on behavioral parameters
- social interaction deficit (Oprm1−/− mice, chronic once daily i.p., NaBr 10-500 mg/kg or bumetanide 0.5 and 2 mg/kg, D9): from the dose of 125 mg/kg dose-dependently relieved this deficit
- number of nose contacts (Oprm1−/− mice, chronic once daily, NaBr 10-500 mg/kg (effect from 125 mg/kg) or bumetanide 0.5 and 2 mg/kg (effect at low dose), D9): restored number
- mean duration of nose contacts [1]: restored
- mean duration of paw contacts [1]: normalized
- number of paw contacts [1]: normalized number
- grooming after social contact (Oprm1−/− mice, chronic once daily, NaBr 10-500 mg/kg or bumetanide 0.5 and 2 mg/kg, D9): normalized the frequency of grooming after social contact in mutants, since the dose of 70 mg/kg
- duration of nose contacts [2]: preserved restoration of the duration of nose contacts
- grooming after social contact [2]: maintained suppression of grooming after social contact
- social interaction parameters (Oprm1−/− mice, single acute injection of NaBr 250 mg/kg, data not shown): had little effect on social interaction parameters
- relieving effects on social interaction (Oprm1−/− mice, two weeks after cessation of chronic NaBr, data not shown): had mostly vanished after two weeks
- number of following episodes (chronic once daily, NaBr 10-500 mg/kg (both mouse lines) or bumetanide (at low dose), D9): increased the number of following episodes in both mouse lines
